The nature of assay [1]: NIH-3T3 fibroblast cytotoxicity, dose response, cytotoxicity control, cell-based, fluorescence, Alamar Blue, secondary assay (AID 2327).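 Further: NIH-3T3 mouse fibroblasts cultured with fluconazole at 8 µg/mL.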 The format is functional. In general terms: Resazurin is reduced to fluorescent resorufin, in cell work by metabolically active cells.
Assay [2] can be described thus: A cytotoxicity screen of small molecule inhibitors of the PhoP region in Salmonella typhi identified in the primary screen. [Related pubchem assays: 1850, 1864, 1985 ]. The format is functional.
Assay [3] has as its system Streptococcus sp. 'group A'. The assay can be described thus: Streptococcus pyogenes SK(-)GAS viability under kanamycin – luminescence, BacTiterGlo, confirmation, counter-screen for streptokinase expression inhibitor project, dose response (AID 1900). The assay is classed as functional, organism-based. (In general: The purpose of a counterscreen is to sort out artefacts and off-target activity.)

Assay [4] concerns the target T1, Streptokinase A (Streptococcus pyogenes serotype M1, UniProt P10520).
T1 sequence (P10520 whole entry): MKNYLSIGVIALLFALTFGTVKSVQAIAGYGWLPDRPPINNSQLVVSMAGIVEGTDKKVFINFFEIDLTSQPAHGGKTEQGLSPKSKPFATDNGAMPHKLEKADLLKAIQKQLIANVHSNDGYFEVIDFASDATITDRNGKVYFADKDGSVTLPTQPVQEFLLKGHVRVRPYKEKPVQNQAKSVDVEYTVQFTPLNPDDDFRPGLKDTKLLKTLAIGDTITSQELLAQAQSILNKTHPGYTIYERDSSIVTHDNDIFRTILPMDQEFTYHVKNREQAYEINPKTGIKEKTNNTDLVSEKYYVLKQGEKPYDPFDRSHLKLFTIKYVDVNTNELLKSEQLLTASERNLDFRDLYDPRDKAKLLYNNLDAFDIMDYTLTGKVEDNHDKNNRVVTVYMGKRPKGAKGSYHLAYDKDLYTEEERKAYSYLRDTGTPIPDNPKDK
As to the kind of experiment: viability-normalized secreted streptokinase activity reduction – plasminogen activation absorbance, OD405, dose response (AID 1914).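 Further: secreted streptokinase activity via plasminogen activation per viability signal from cell pellet.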 The format is functional, Streptococcus pyogenes M1 GAS.

Assay [5] is described as follows: fluconazole-exposed Candida albicans growth modulators – fluorescence, retest, confirmation (AID 2467). The assay is classed as functional, cell-based.
The subject of assay [6] is Streptococcus. The assay can be described thus: GAS UMAA2166 growth inhibition – luminescence, BacTiterGlo, counter-screen for streptokinase expression inhibitor project, dose response (AID 1915).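 Further: potency for reduction of bacterial viability or growth.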 The assay is classed as functional, organism-based.
Assay [7] addresses Trypsin (Sus scrofa, UniProt P00761). As to the kind of experiment: trypsin protease activity blockade – biochemical, quenched peptide fluorescence, cherry-pick, selectivity assay for Rce1 protease inhibitor project, dose response (AID 488789).
The target of assay [8] is T2, Bcl-2-related protein A1 (Mus musculus, UniProt Q07440).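 Further: confirmatory dose–response counterscreen on Bfl-1, used to check hits from a UBC13 polyubiquitin inhibitor campaign.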
T2 sequence (Q07440 whole entry): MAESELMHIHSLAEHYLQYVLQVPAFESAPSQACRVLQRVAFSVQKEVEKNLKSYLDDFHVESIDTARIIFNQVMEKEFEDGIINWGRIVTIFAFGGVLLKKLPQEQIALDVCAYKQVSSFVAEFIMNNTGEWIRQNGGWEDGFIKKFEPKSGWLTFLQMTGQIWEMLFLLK
The format is functional.

Assay [9] concerns the target T3, Ubiquitin-conjugating enzyme E2 N (Homo sapiens, UniProt P61088).
T3 sequence (P61088 whole entry): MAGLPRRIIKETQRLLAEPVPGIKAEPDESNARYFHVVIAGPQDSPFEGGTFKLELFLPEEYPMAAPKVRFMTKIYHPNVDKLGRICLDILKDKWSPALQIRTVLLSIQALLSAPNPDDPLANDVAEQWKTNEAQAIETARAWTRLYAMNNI
The assay is classed as functional.

A short description of assay [10]: Cytotoxicity screening for potential Inhibitors of Bacterial Capsule Biogenesis. [Related pubchem assays (depositor defined):AID488970]. The format is functional.
For assay [11], the target named is T3, Ubiquitin-conjugating enzyme E2 N. The assay is classed as functional. This is another data set of the same source.
The target of assay [12] is T4, Endoribonuclease toxin MazF (Escherichia coli K-12, UniProt P0AE70).
T4 sequence (P0AE70 whole entry): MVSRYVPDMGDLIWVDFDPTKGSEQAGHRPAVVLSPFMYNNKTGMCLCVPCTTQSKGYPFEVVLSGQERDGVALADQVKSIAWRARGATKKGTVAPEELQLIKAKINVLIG
As to the kind of experiment: activation of MazEF endoribonuclease cleavage – biochemical, fluorescence, single-stranded RNA substrate, uHTS hits, dose response (AID 588481). The format is functional.

The target in assay [13] is T4, Endoribonuclease toxin MazF. As to the kind of experiment: substrate-only fluorescence increase artefacts – biochemical, single-stranded RNase substrate, counter-screen for MazEF activator project, dose response (AID 588502). The assay is classed as functional.
The target in assay [14] is T5, CAAX prenyl protease 2 (Homo sapiens, UniProt Q9Y256).
T5 sequence (Q9Y256 whole entry): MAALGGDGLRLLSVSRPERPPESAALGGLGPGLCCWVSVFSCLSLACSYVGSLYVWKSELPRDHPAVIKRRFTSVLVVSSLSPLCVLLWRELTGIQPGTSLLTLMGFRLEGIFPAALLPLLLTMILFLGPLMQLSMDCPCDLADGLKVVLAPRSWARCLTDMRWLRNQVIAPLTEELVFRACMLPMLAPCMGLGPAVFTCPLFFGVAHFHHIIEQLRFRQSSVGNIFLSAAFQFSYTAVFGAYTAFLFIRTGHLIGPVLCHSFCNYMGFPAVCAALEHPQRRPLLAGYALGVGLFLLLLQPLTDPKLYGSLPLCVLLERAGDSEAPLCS
The assay can be described thus: inhibition of Ras-converting CAAX protease Rce1 – biochemical, yeast membranes, quenched-peptide fluorescence, cherry-pick, dose response (AID 588849).

Assay [15] addresses T6, Rac GTPase-activating protein 1 (Homo sapiens, UniProt Q9H0H5).
T6 sequence (Q9H0H5 whole entry): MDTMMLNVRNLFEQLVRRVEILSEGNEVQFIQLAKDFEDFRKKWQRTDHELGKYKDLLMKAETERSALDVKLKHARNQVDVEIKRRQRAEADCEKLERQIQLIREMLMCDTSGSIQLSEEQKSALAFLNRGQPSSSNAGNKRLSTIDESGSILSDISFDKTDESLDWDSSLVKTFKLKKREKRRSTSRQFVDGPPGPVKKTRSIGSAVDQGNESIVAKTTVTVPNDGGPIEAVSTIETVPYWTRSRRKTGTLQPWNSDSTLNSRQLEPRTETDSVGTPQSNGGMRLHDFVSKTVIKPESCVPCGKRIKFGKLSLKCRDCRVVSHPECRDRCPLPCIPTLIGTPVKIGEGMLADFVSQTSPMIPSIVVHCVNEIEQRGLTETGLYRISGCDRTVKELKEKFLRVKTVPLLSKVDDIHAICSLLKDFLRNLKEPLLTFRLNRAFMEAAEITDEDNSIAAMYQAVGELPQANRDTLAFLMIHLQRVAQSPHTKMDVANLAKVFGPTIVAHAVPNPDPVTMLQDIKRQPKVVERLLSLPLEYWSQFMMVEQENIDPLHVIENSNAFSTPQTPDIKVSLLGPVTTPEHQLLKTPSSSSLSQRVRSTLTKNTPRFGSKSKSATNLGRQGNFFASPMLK
The assay can be described thus: blockers of MgcRacGAP-driven Rac1 GTP hydrolysis – biochemical, ADP Hunter fluorescence, primary and confirmatory, confirmation (AID 624330). The format is functional.

In assay [16] the target is T7, DNA repair protein RAD52 homolog (Homo sapiens, UniProt P43351).
T7 sequence (P43351 whole entry): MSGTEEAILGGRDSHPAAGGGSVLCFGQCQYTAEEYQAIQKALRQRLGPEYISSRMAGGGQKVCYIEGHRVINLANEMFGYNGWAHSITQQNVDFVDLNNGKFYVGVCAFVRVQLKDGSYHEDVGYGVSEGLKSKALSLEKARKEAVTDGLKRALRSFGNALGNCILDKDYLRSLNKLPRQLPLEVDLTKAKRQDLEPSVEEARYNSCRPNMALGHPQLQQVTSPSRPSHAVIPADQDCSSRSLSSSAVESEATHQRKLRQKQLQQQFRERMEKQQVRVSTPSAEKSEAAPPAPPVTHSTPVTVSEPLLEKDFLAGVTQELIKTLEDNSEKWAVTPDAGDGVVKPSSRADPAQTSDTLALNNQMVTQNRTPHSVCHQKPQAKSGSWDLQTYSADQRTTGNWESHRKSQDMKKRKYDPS
The format is functional, biochemical.

For assay [17], the system named is Escherichia coli. As to the kind of experiment: microbe, parasite or virus in culture.
In assay [18] the test system is Salmon testes DNA. The assay can be described thus: acridine orange-DNA binding displacement – biochemical, fluorescence polarization, cherry-picked samples, set 2, artefact control for KSHV LANA DNA-binding inhibitor project, dose response (AID 504727). On the set-up: species or system Salmonidae. For orientation: Polarisation of emitted light reports the rotation of a fluorescent probe.

The target in assay [19] is T8, ORF 73 (Human herpesvirus 8, UniProt O40947).
T8 sequence (O40947 whole entry): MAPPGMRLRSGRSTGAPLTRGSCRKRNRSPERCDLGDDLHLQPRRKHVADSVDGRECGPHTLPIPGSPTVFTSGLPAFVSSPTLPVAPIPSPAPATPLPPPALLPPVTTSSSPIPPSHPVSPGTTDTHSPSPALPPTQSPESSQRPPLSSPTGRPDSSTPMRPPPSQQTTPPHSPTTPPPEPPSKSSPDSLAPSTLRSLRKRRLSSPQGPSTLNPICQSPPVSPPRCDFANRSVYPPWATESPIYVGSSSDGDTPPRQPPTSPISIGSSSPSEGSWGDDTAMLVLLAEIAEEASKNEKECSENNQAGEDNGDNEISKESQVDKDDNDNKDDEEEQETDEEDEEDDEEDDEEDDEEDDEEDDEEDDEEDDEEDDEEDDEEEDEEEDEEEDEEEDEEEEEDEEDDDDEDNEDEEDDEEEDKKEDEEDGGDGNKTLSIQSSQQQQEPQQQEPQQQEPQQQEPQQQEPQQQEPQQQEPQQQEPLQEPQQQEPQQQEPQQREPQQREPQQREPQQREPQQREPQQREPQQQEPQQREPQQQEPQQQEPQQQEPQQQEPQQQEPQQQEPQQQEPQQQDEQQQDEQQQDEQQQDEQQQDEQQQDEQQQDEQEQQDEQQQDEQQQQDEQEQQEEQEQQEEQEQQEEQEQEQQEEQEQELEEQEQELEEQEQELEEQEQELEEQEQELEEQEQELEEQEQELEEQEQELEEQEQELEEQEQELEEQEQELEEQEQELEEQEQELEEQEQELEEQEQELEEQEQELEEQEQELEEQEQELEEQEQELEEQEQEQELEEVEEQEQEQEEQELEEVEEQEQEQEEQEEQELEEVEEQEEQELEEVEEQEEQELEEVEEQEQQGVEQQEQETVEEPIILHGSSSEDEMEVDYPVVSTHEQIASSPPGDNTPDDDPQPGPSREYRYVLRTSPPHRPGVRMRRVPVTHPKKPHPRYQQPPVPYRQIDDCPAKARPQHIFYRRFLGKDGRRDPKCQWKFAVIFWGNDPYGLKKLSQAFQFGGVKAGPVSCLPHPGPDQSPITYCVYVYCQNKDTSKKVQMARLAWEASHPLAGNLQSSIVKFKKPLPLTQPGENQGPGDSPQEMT
As to the kind of experiment: KSHV LANA DNA-binding disruption – biochemical, fluorescence polarization, cherry-picked samples, dose response (AID 504725).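 Further: fluorescence polarization of a labeled DNA duplex reporting LANA DNA binding; potency is for inhibitors that block LANA binding to the DNA.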 Set-up: species or system Human gammaherpesvirus 8.

For assay [20], the target named is UDP-galactopyranose mutase (Mycobacterium tuberculosis, UniProt P9WIQ1). As to the kind of experiment: Inhibitors of Mycobacterium tuberculosis UDP-galactopyranose mutase (UGM) enzyme Measured in Biochemical System Using Plate Reader - 2105-02_Inhibitor_Dose_CherryPick_Activity. [Related pubchem assays (depositor defined):AID504439].
Assay [21] concerns the target Keap1/Nrf2 (Homo sapiens, UniProt Q14145). As to the kind of experiment: disruptors of Keap1 binding to Nrf2 peptide – biochemical, fluorescence polarization, cherry-picked samples, dose response (AID 588683).
Assay [22] concerns the target T9, Phosphomannomutase 2 (Homo sapiens, UniProt O15305).
T9 sequence (O15305 whole entry): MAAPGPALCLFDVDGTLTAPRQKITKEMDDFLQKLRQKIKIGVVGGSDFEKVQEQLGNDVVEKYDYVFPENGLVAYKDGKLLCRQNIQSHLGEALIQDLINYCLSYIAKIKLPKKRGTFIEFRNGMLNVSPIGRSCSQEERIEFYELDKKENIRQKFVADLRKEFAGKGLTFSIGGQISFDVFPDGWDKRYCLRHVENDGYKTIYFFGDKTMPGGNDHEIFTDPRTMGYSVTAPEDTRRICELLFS
As to the kind of experiment: Counter screen SAR assay for PMM2 inhibitors via a fluorescence intensity assay. [Related pubchem assays (depositor defined):AID1545, AID1574].

Assay [23] concerns the target Phosphoethanolamine/phosphocholine phosphatase (Homo sapiens, UniProt Q8TCT1). The assay can be described thus: SAR assay for compounds that inhibit PHOSPHO1. [Related pubchem assays (depositor defined):AID1545, AID1565, AID1574].

Molecules are shown by their SMILES. Activity calls are given as the source filed them.

Sequence of UDP-galactopyranose mutase (P9WIQ1 whole entry): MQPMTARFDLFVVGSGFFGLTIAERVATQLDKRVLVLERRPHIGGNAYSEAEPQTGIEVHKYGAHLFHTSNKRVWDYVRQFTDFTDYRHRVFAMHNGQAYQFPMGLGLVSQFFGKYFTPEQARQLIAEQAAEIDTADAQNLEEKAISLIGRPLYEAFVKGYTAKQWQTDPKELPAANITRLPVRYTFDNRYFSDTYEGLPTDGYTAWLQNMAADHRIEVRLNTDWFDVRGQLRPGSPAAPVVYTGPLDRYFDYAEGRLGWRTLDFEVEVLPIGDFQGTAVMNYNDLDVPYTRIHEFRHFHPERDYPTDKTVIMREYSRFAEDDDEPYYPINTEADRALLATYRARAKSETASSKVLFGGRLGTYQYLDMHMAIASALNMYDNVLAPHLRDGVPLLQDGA
Sequence of Trypsin (P00761 whole entry): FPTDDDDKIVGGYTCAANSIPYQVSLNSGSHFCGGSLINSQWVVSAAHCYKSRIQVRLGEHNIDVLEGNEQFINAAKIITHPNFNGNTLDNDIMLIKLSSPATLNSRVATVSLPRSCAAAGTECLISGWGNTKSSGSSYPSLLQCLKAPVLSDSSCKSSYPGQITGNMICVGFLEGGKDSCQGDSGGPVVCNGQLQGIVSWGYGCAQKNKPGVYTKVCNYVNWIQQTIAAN
Sequence of Phosphoethanolamine/phosphocholine phosphatase (Q8TCT1 whole entry): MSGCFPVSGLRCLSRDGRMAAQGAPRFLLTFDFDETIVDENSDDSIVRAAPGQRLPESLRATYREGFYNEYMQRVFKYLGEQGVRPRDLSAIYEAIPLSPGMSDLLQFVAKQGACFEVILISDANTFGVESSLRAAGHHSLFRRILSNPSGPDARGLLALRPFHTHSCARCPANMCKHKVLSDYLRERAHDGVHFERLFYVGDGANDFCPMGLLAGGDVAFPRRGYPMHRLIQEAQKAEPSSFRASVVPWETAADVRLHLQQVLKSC
Sequence of Keap1/Nrf2 (Q16236 whole entry): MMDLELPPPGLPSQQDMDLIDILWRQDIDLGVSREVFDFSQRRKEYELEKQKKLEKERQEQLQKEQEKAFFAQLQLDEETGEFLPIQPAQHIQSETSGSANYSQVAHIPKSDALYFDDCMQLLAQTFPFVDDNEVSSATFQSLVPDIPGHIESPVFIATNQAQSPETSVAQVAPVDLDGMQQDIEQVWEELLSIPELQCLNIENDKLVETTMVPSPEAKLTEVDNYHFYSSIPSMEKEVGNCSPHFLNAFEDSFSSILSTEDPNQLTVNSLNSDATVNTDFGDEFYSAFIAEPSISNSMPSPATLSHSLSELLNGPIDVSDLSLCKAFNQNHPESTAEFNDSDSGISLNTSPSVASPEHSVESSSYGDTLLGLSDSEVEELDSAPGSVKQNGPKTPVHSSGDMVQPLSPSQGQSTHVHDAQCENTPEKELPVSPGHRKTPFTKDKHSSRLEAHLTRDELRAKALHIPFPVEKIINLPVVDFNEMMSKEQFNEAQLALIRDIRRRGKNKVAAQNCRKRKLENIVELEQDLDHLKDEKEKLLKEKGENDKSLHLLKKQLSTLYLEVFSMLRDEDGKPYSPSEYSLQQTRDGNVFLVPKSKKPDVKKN
Sequence of Keap1/Nrf2 (Q14145 whole entry): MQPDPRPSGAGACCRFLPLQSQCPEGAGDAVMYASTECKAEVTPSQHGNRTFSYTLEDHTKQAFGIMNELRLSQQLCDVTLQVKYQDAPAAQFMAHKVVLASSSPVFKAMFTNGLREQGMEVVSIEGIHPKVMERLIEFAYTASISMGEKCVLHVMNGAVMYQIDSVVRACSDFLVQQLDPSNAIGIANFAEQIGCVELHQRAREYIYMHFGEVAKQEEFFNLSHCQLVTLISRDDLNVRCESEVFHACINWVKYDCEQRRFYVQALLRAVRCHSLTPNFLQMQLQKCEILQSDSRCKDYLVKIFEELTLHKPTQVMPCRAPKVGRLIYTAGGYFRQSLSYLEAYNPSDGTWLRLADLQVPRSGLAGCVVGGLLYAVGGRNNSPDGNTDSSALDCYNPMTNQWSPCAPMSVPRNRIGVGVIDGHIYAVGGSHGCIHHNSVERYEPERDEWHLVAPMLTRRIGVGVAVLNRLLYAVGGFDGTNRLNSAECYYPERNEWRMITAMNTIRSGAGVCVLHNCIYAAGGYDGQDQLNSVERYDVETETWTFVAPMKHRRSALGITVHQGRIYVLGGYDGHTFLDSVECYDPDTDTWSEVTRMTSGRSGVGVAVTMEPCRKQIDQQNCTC

As usually defined, the EC50 is the concentration that produces a half-maximal response. In general, AC50 refers to the midpoint of the concentration-response curve, whichever way the signal moves. Broadly, the IC50 is the point on the concentration scale where inhibition reaches its midpoint. The term CC50 denotes the concentration at which the toxic effect on the cells reaches its halfway point. Consider `N=C(N)c1ccc(/C=C/c2ccc(C(=N)N)cc2O)cc1`, for which the EC50 is > 150 µM (inactive) in [1]; > 50 µM (active) in [2]; 1.43 µM (active) in assay [3]; 20 µM (active) in assay [4]; 0.529 µM (active) in assay [5]; > 150 µM (not active) in [6]. The EC50 in assay [12] is 4.77 µM (active); in assay [13] it was > 99 µM (inactive). The AC50 in assay [7] is 3.15 µM (active); in assay [14], > 100 µM (inactive); in [16] it was 0.708 µM (active); in [17], 37.7 µM (active). For the same compound, the IC50 in [8] is > 20 µM (inactive); in assay [9], 3.61 µM (active); in [11], 2.8 µM (active); in assay [15], 39 µM (active). The CC50 in assay [10] was > 100 µM (active).
Turning to `Cc1cc2nc3c(O)nc(S)nc3nc2cc1NC(=O)C(F)(F)F`, the AC50 in assay [18] was 86.4 µM (active); in assay [19], 40.6 µM (active); in assay [20], 19.6 µM (active); in assay [21] it was > 52 µM (inactive). The EC50 in assay [12] and in assay [13] was > 99 µM (inactive) in each case.
Consider `CN(C)c1cccc(-n2sc3ccccc3c2=O)c1`, for which the IC50 was 85.2 µM (active) in [22] and 52.9 µM (inactive) in [23].

Source of the values: ChEMBL document CHEMBL1201862, “PubChem BioAssay data set” (2004).
